Values quoted from earlier work, collected in paper PMC7673724 (Science Advances, 2020).

System: Rubisco
Conditions: control used to normalize array signal (one unit of binding)

TRSVLPANWRQELESLRN [control EPYC1 peptide]
Binding to Rubisco of the positive control peptide: known to bind to Rubisco
